Results published in the supplement of paper PMC13380429.
± gives the standard deviation of the averaged measurements.

How the values were obtained:
Conditions in all cases: 72 h
HepG2 [1] = assay: drug sensitivity score (DSS) for viability; higher = more toxic; extreme values may be limits of the assay
Caco-2 [2] = assay: as above
Calu-3 [3] = assay: as above
Vero E6 [4] = assay: as above
U2OS [5] = assay: as above
HepG2 [6] = assay: relative viability EC50 (midpoint between 100% and the lowest measured viability); higher = less toxic
Caco-2 [7] = assay: as above
Calu-3 [8] = assay: as above
Vero E6 [9] = assay: as above
U2OS [10] = assay: as above
HepG2 [11] = assay: cell viability relative to DMSO; higher = less toxic
Caco-2 [12] = assay: as above
Calu-3 [13] = assay: as above
Vero E6 [14] = assay: as above
U2OS [15] = assay: as above

Row | Structure (SMILES) | drug sensitivity score (HepG2 [1]) | drug sensitivity score (Caco-2 [2]) | drug sensitivity score (Calu-3 [3]) | drug sensitivity score (Vero E6 [4]) | drug sensitivity score (U2OS [5]) | relative viability EC50 (HepG2 [6]) [µM] | relative viability EC50 (Caco-2 [7]) [µM] | relative viability EC50 (Calu-3 [8]) [µM] | relative viability EC50 (Vero E6 [9]) [µM] | relative viability EC50 (U2OS [10]) [µM] | cell viability (HepG2 [11]; 1 nM) [%] | cell viability (HepG2 [11]; 10 nM) [%] | cell viability (HepG2 [11]; 100 nM) [%] | cell viability (HepG2 [11]; 1000 nM) [%] | cell viability (HepG2 [11]; 10000 nM) [%] | cell viability (Caco-2 [12]; 1 nM) [%] | cell viability (Caco-2 [12]; 10 nM) [%] | cell viability (Caco-2 [12]; 100 nM) [%] | cell viability (Caco-2 [12]; 1000 nM) [%] | cell viability (Caco-2 [12]; 10000 nM) [%] | cell viability (Calu-3 [13]; 1 nM) [%] | cell viability (Calu-3 [13]; 10 nM) [%] | cell viability (Calu-3 [13]; 100 nM) [%] | cell viability (Calu-3 [13]; 1000 nM) [%] | cell viability (Calu-3 [13]; 10000 nM) [%] | cell viability (Vero E6 [14]; 1 nM) [%] | cell viability (Vero E6 [14]; 10 nM) [%] | cell viability (Vero E6 [14]; 100 nM) [%] | cell viability (Vero E6 [14]; 1000 nM) [%] | cell viability (Vero E6 [14]; 10000 nM) [%] | cell viability (U2OS [15]; 1 nM) [%] | cell viability (U2OS [15]; 10 nM) [%] | cell viability (U2OS [15]; 100 nM) [%] | cell viability (U2OS [15]; 1000 nM) [%] | cell viability (U2OS [15]; 10000 nM) [%]
1 | O=C1OC(CN2CCOCC2)CN1/N=C/c1ccc([N+](=O)[O-])o1 (stereo not given) [furaltadone] | 2.1 | 0 | 0 | 0 | 0 | > 10 | > 10 | > 10 | > 10 | > 10 | 96.4 | 93.3 | 92.8 | 81.7 | 82.5 | 96.5 | 87 | 79.7 | 99.8 | 82.3 | 95.7 | 93.6 | 94.4 | 103 | 104 | 108 | 94 | 103 | 109 | 102 | 99.8 | 99.3 | 95.4 | 106 | 95.1
2 | C=C[C@]1(C)CC[C@@H](C(=C)C)C[C@H]1C(=C)C [beta-elemene] | 0 | 0 | 0 | 0 | 0 | > 10 | > 10 | > 10 | > 10 | > 10 | 95.8 | 101 | 93.2 | 106 | 103 | 95.3 | 98.6 | 97.5 | 92.6 | 102 | 106 | 98.4 | 103 | 97.2 | 102 | 97.4 | 97.2 | 95.7 | 97.8 | 96.6 | 102 | 98 | 97 | 96.4 | 101
3 | CC[C@]1(O)C[C@H]2CN(CCc3c([nH]c4ccccc34)[C@@](C(=O)OC)(c3cc4c(cc3OC)N(C=O)[C@H]3[C@@](O)(C(=O)OC)[C@H](OC(C)=O)[C@]5(CC)C=CCN6CC[C@]43[C@@H]65)C2)C1 [Vincristine (sulfate)] | 24.3 | 23.3 | 19.1 | 14.4 | 24.7 | 0.0102 | 0.0094 | 0.0248 | 0.196 | 0.0302 | 109 | 68.4 | 39.2 | 35.4 | 36.9 | 91.9 | 66 | 42.5 | 41.4 | 34.8 | 88 | 78.2 | 54.8 | 39.6 | 34.6 | 98.9 | 102 | 82.9 | 34.2 | 29.8 | 97.1 | 80.8 | 35.4 | 19.5 | 17.6
4 | CCOC(=O)C1=C(N)Oc2ccc(Br)cc2C1C(C#N)C(=O)OCC (stereo not given) [HA-14-1] | 0 | 0 | 0 | 0 | 0 | > 10 | > 10 | > 10 | > 10 | > 10 | 100 ± 2.5 | 97.3 ± 9.6 | 98.2 ± 4.7 | 95.7 ± 7.4 | 96.8 ± 7.7 | 99 ± 3.9 | 95.2 ± 4.1 | 104 ± 4.9 | 99.7 ± 4.6 | 99.5 ± 5 | 95.2 ± 7.3 | 105 ± 8.6 | 97 ± 0.99 | 98.2 ± 4.5 | 108.6 ± 0.14 | 93 | 100 | 90 | 97.7 | 99.3 | 95 | 99.9 | 99 | 101 | 110
5 | CCOC(=O)C1=C(C)NC(C)=C(C(=O)OC)C1c1cccc(Cl)c1Cl (stereo not given) [felodipine] | 0 | 0 | 0 | 0 | 0 | > 10 | > 10 | > 10 | > 10 | > 10 | 105 | 107 | 99.5 | 99.2 | 96.9 | 101 | 102 | 104 | 91.8 | 99 | 89.8 | 101 | 111 | 98.2 | 102 | 99.2 | 103 | 101 | 103 | 94.7 | 106 | 96.7 | 99.7 | 97.4 | 100
6 | O=C(O)c1cc2ccccc2s1 [BL-5583] | 0 | 0 | 0 | 0 | 0 | > 10 | > 10 | > 10 | > 10 | > 10 | 112 | 109 | 97.4 | 98.8 | 110 | 97.7 | 107 | 102 | 102 | 100 | 98 | 106 | 106 | 98.7 | 141 | 102 | 95.7 | 97.5 | 101 | 93 | 103 | 105 | 100 | 100 | 98
7 | CN1Cc2c(C(=O)OC(C)(C)C)ncn2-c2ccsc2C1=O [Ro-19-4605] | 0 | 0 | 0 | 0 | 0 | > 10 | > 10 | > 10 | > 10 | > 10 | 105 | 96.9 | 115 | 96.6 | 108 | 98.8 | 102 | 101 | 100 | 103 | 96.9 | 98 | 89 | 103 | 99.3 | 101 | 96.4 | 103 | 96.8 | 103 | 94.5 | 92.8 | 95.4 | 102 | 97.2
8 | NCCCCCCCCCCNS(=O)(=O)c1cccc2c(Cl)cccc12 [A-7] | 0 | 0 | 0 | 0 | 0 | > 10 | > 10 | > 10 | > 10 | > 10 | 112 | 102 | 98.6 | 108 | 95.8 | 108 | 95.5 | 107 | 99.7 | 97.3 | 97.8 | 98.8 | 96.5 | 95.9 | 95.1 | 97.3 | 98.4 | 95.2 | 101 | 94.7 | 99.2 | 106 | 97.4 | 99.8 | 93.9
9 | OC(CCN1CCCCC1)(c1ccccc1)c1ccccc1 [pridinol] | 0 | 0 | 0 | 0 | 0 | > 10 | > 10 | > 10 | > 10 | > 10 | 101 | 95.3 | 101 | 106 | 106 | 96.9 | 108 | 97.9 | 94.9 | 99 | 97.8 | 96.9 | 91.7 | 99.4 | 93.2 | 99.8 | 103 | 100 | 93.8 | 98.5 | 99.5 | 102 | 93.7 | 93.5 | 100
10 | C[C@H](N[C@@H](CCc1ccccc1)C(=O)O)C(=O)N1Cc2ccccc2C[C@H]1C(=O)O [quinaprilat] | 0 | 0 | 0 | 0 | 0 | > 10 | > 10 | > 10 | > 10 | > 10 | 107 | 94.9 | 98.4 | 110 | 94.9 | 102 | 98.2 | 96.8 | 100 | 92.1 | 97.5 | 97.6 | 91.3 | 97 | 93.5 | 91.8 | 98.9 | 91.8 | 104 | 106 | 94.7 | 96.1 | 98.3 | 98.1 | 106
11 | COc1cccc(OC)c1-c1ccc(C[C@H](NC(=O)c2c(Cl)cccc2Cl)C(=O)O)cc1 | 0 | 0 | 0 | 0 | 0 | > 10 | > 10 | > 10 | > 10 | > 10 | 91.7 | 104 | 91 | 99.5 | 99.3 | 85.9 | 90.1 | 97.6 | 94.4 | 108 | 104 | 90.9 | 105 | 96.9 | 108 | 92.2 | 96.2 | 91.8 | 99.9 | 107 | 103 | 96.5 | 98.5 | 97.8 | 93.4
12 | CN1CCN(C(=O)O[C@H]2c3nccnc3C(=O)N2c2ccc(Cl)cn2)CC1 [ESZOPICLONE] | 0 | 0 | 0 | 0 | 0 | > 10 | > 10 | > 10 | > 10 | > 10 | 97.2 | 95.2 | 92.8 | 102 | 101 | 93.8 | 98.3 | 94.3 | 98.6 | 100 | 109 | 106 | 91.2 | 104 | 99.6 | 97.3 | 101 | 93.6 | 97.2 | 111 | 98.3 | 87.6 | 99.5 | 98.3 | 96.6
13 | NCCCS(=O)(=O)O [tramiprosate] | 0 | 0 | 0 | 0 | 0 | > 10 | > 10 | > 10 | > 10 | > 10 | 108 | 97.4 | 106 | 108 | 109 | 86.1 | 94.8 | 97.7 | 98.1 | 93 | 98.5 | 95.1 | 95 | 96.8 | 98.7 | 95.2 | 95.8 | 100 | 99.7 | 106 | 94.6 | 99.2 | 101 | 103 | 94.7
14 | O=C1NCC2(CCN(CCc3ccccc3)CC2)O1 [fenspiride] | 0 | 0 | 0 | 0 | 0 | > 10 | > 10 | > 10 | > 10 | > 10 | 96.7 | 107 | 100 | 112 | 103 | 99 | 103 | 91.2 | 101 | 104 | 96.6 | 92.5 | 85 | 92.3 | 98.9 | 94.9 | 98.3 | 97.9 | 103 | 103 | 105 | 97.7 | 101 | 99.2 | 108
